According to patent publication US12186307B2, “Methods of treating epilepsy” (YALE UNIVERSITY, priority 2019, dated 2025):
Values joined by “and” are separate entries in the source; they are usually repeats but may differ in a detail not shown here. Equal entries are not always repeated. “Also recorded” adds a separate entry of the source.

How the values were obtained:
[1] = test system: seizures in individuals with TSC or FCDII; details: clinical trial, cited from earlier work
[2] = test system: Rheb^CA-expressing neurons; assay: Cell placement, soma size and dendrite (Sholl) analysis in Rheb^CA mouse model of FCM; format: in vivo, CD-1 mice
Experimental: (§1) All experiments were performed on CD-1 mice (Charles River) of either sex.
(§2) Each DNA plasmid was diluted in sterile PBS (pH 7.4). Timed pregnant mice (embryonic day, E15) were anesthetized with isoflurane. After exposing the uterine horns, ˜1.5 μl of DNA solution, containing 0.1% fast green added as an injection tracer, was injected into the lateral ventricle via a pulled glass capillary. PBS-soaked tweezer-type electrodes (model 520, BTX) were then positioned on the head of the fetuses across the uterine wall and 6 square-pulses at […] and 50 ms duration every 950 ms were applied using a pulse generator (ECM830, BTX). At birth, mice were prescreened for successful electroporation by detecting the expression of fluorescent protein markers on a fluorescence-enabled stereo microscope (SZX16, Olympus). Morphology and seizure data in different conditions (Flna vs Luciferase shRNA or vehicle vs PTI-125 treatment) were compared between littermate mice. For most experiments, mice received unilateral electroporation, except for experiments in FIG. 4F (P8-P65 PTI-125 treatment on seizures) for which mice received bilateral electroporation.
(§3) Mice: Mice were transcardially perfused with PBS followed by 4% paraformaldehyde. Brains were then dissected and post-fixed in 4% paraformaldehyde for 24 hours before being transferred to a solution of 3% agarose solution in PBS. These were then sectioned coronally on a vibratome at a thickness of 50 μm. For immunofluorescence, free-floating sections were incubated for 1 hour in a blocking solution (2% bovine serum albumin and 0.1% Triton-X in PBS) at room temperature and then incubated with primary antibodies (Table 5) overnight at 4° C. Sections were washed with PBS+0.05% Tween 20 and then placed in blocking solution containing secondary antibodies for 1 hour at room temperature. All images were taken using an FV1000 confocal microscope (Olympus).
(§4) Quantification of the number of layer 2/3 neurons in the anterior cingulate cortex, the boundary between layer 2/3 and layer 5 was determined using ER81 staining, which labels layer 5 (FIGS. 14A-14B)Soma size was quantified by outlining the soma of GFP+ cells and measuring the area using ImageJ. Intensity of phospho-S6 and FLNA in sections was quantified by outlining somas of cells and measuring the mean gray value. Then, the values in electroporated cells (in mice) or SMI-311-positive cells (in humans) were normalized to those in non-electroporated cells or unstained cells surrounding electroporated cells to control for variability of staining between sections.
To analyze neuronal morphology and, in particular dendritic trees, only a few neurons per section were labeled using a Cre-based strategy as previously reported. More specifically, an inducible DsRed2 vector (pCAG-LoxP-stop-LoxP-DsRed2, pCALNL-DsRed2) combined with a Cre vector (pCAG-Cre) was used at very low concentration (1 ng/μl). The Cre plasmid led to DsRed expression in only 3-5 neurons per slice allowing to cleanly analyze the dendritic morphology of individual neurons (FIGS. 15A-15C)Images of DsRed-expressing basal dendrites were acquired in coronal sections using a Fluoview 1000 confocal microscope with a 20× objective. Basal dendrites were traced with simple neurite tracer software (FIJI and Neuronstudio). Sholl analyses were carried out using the number of intersections in 10-μm-increment concentric circles as a measure of morphological complexity. Z stacks from three different square fields of view were taken from three different sections. Analysis was performed blindly with more than four animals and more than 20 cells per condition (see Table 3 for actual n number).
(§5) PTI-125 was dissolved in saline at a concentration of 2.4 mg/ml. Mice received two intraperitoneal injections of 6 or 12 mg/kg PTI-125 every day. Saline was used as vehicle treatment.

Rheb^CA-expressing mice = assay: Video-EEG recording of seizures in Rheb^CA-expressing mice; format: in vivo, CD-1 mice
Experimental: as §1
as §2, with “Olympus).” for “Olympus). Morphology and seizure data in different conditions (Flna vs Luciferase shRNA or vehicle vs PTI-125 treatment) were compared between littermate mice. For most experiments, mice received unilateral electroporation, except for experiments in FIG. 4F (P8-P65 PTI-125 treatment on seizures) for which mice received bilateral electroporation.”
Mice were anesthetized with isoflurane and positioned on a stereotaxic frame using ear bars. A rostro-caudal midline incision was made in the skin to expose the skull surface. Four pilot holes (two bilateral holes 1 mm anterior to bregma and two bilateral holes 5 mm posterior to bregma, each 1.5 mm lateral to sagittal suture), was tapped through the skull to dura using a microdrill (Roboz Surgical Instrument, #RS6300). […] Silver conductive paint (Electron Microscopy Science) was applied around the screw threads to ensure a solid connection with the headmount. The entire implant was insulated using dental acrylic. Mice were allowed to recover in their home cage for seven days before video-EEG monitoring.
Mice were housed in individual recording chambers in a light-, temperature- and humidity-controlled room during video-EEG monitoring. Mice were freely moving inside the chambers and had ad libitum access to food and water. Synchronous video-EEG recording was acquired using a three-channel EEG tethered system (Pinnacle Technology, cat. no. 8200-K1-iSE3) and Sirenia Acquisition software (Pinnacle Technology). Mice were continuously recorded 24 hours/day for 5-6 consecutive days or 31-45 days.
Seizure frequency and duration were analyzed using Sirenia Seizure Basic software (Pinnacle Technology). All analyses were performed blinded to experimental groups by at least two investigators. The entire EEG traces were manually reviewed for the occurrence of seizures, defined as a sudden onset of high amplitude activity with a characteristic pattern of progressive frequency and amplitude changes over the course of the event lasting≥10 sec. Seizure onset was defined by high amplitude firing>2× baseline and seizure termination was defined by a return to baseline activity. Video data were inspected for behavioral correlates including myoclonic jerks, tonic-clonic activities, convulsions, and loss of postural control (rearing and falling) and were used as secondary verification of seizures. For each individual animal, mean number of seizures per day was obtained by dividing the total number of seizures by the total number of recording hours and multiplied by 24.
Saline was used as vehicle treatment.

Neuro2a cells = assay: S6 phosphorylation immunoblot in transfected Neuro2a cells; format: cell-based; details: in vitro, Neuro2a cells transfected with shRNA
Experimental: Neuro2a cells were grown at 37° C. with 5% CO2 in a complete media consisting of high glucose DMEM (Gibco, #11965-092), 5% heat-inactivated fetal bovine serum (Gibco, #16140071), and 1% penicillin-streptomycin. Cells were plated in 12 well culture plates (Corning, #0720082) and transfected when they reached ˜70% confluence. Transfection was done using PolyJet transfection reagent (Signagen, SL100688) according to the manufacturer's instructions. Cells were lysed 72 hours after transfection for all experiments.
(§6) Human and mouse samples were lysed in RIPA buffer (Thermo fisher, #89900) with protease/phosphatase inhibitor cocktail (Cell Signaling Technology, #5872), 5 mM EDTA, and 20 units/ml DNase I (Roche). All lysates were run on Tris-glycine gels (Bio-Rad, #456-1086 for mouse samples and #456-1046 for human samples). Proteins were transferred to PVDF and blocked in 5% milk and incubated with primary antibodies (concentrations of primary antibody are listed in Table 5). HRP-conjugated anti-rabbit or anti-mouse were used as secondary antibodies. Phosphorylated and total proteins were blotted on the same membrane after stripping (Thermo fisher, #21059). All density measurements were performed using NIH Image J software. In the case where cross-blot normalization was required a reference sample was loaded on each gel to account for inter-gel variability (FIGS. 11A-11B).

phospho-S6 = assay: Phospho-S6 (read-out of mTORC1 activity) immunostaining / immunoblot in mouse cortex; format: in vivo, CD-1 mice
Experimental: as §3, §4
as §6, with “All density measurements were performed using NIH Image J software. In the case where cross-blot normalization was required a reference sample was loaded on each gel to account for inter-gel variability (FIGS. 11A-11B).” left out

native FLNA = native FLNA (Homo sapiens, UniProt P21333); details: reported; cited from earlier work
[3] = Body weight during treatment of Rheb^CA mice; format: in vivo, CD-1 mice; details: 12 mg/kg i.p. twice daily, P8-P60
Experimental: as §1, §5

[4] = target: aberrant FLNA in Alzheimer's disease (Homo sapiens, UniProt P21333); details: reported; cited from earlier work
[5] = 6 mg/kg i.p. twice daily, P8 to P28
[6] = 12 mg/kg i.p. twice daily, P8 to P28
[7] = treatment after seizure onset, P29 to P54

native FLNA, sequence (P21333 whole entry, species assumed): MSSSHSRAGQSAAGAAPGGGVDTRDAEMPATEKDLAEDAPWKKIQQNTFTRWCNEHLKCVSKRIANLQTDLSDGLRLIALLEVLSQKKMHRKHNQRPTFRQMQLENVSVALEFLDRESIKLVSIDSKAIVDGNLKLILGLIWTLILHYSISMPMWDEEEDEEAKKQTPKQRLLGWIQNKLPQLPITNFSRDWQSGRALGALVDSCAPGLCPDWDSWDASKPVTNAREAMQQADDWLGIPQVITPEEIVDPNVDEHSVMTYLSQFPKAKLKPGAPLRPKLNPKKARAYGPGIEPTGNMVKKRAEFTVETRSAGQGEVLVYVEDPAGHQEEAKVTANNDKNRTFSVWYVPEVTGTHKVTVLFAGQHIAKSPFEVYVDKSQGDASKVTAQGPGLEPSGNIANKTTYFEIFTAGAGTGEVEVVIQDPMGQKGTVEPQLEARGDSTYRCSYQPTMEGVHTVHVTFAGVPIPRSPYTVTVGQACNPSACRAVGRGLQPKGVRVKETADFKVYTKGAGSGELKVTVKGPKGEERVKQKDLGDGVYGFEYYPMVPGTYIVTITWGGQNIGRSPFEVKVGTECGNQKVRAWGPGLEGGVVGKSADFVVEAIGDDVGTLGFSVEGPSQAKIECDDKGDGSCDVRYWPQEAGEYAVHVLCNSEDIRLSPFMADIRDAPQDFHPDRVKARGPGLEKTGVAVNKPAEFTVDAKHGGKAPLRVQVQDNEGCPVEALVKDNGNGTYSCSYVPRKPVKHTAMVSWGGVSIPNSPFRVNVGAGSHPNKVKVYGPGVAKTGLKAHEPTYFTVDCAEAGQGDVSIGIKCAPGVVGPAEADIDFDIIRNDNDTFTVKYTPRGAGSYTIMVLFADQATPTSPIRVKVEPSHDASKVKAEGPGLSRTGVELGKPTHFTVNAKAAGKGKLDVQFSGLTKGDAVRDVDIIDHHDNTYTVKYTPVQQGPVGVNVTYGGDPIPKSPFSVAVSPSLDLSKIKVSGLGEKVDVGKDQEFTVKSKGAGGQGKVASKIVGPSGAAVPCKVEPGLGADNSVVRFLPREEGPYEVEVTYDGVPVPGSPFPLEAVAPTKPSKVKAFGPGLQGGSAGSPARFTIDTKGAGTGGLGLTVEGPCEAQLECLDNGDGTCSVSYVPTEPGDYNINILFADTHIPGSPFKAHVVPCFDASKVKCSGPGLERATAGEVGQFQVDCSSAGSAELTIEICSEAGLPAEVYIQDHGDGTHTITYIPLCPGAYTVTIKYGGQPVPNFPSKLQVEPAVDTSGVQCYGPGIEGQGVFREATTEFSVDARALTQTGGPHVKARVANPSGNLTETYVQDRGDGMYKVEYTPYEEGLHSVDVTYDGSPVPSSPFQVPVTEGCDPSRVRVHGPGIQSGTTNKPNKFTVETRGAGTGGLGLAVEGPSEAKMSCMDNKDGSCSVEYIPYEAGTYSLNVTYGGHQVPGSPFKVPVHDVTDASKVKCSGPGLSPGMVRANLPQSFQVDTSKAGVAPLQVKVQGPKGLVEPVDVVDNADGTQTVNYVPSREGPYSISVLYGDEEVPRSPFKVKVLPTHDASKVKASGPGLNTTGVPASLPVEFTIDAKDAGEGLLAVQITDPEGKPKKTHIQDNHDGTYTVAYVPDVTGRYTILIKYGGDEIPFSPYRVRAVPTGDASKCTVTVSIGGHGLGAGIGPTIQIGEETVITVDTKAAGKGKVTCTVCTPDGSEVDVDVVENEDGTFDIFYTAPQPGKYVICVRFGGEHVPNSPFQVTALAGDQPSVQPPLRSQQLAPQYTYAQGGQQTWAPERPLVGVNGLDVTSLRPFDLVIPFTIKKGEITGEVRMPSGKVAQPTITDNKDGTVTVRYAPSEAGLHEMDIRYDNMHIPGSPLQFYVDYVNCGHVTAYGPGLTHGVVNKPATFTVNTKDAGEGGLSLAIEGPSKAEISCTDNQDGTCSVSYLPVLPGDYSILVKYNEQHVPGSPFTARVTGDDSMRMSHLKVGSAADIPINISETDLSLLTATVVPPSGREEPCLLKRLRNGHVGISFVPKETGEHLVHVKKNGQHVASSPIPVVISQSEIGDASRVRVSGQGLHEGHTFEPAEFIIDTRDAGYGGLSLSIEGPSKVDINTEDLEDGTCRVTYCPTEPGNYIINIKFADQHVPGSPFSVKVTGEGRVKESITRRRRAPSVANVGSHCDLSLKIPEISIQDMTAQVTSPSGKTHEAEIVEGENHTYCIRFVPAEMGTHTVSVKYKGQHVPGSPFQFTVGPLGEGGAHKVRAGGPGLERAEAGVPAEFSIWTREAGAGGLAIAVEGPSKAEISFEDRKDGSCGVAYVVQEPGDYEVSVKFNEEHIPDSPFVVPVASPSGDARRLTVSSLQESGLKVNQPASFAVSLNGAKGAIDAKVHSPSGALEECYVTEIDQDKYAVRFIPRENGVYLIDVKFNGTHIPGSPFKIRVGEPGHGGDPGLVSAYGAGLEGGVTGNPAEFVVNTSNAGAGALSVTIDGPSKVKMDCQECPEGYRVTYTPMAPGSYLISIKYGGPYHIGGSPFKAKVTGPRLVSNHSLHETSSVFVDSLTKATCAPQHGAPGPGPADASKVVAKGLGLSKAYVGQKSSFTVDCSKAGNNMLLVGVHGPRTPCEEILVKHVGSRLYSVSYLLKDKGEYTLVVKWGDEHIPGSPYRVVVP
aberrant FLNA in Alzheimer's disease, sequence (P21333 whole entry): as the sequence (P21333 whole entry, species assumed) above

CO[C@H]1C[C@@H]2CC[C@@H](C)[C@@](O)(O2)C(=O)C(=O)N2CCCC[C@H]2C(=O)O[C@H]([C@H](C)C[C@@H]2CC[C@@H](OCCO)[C@H](OC)C2)CC(=O)[C@H](C)/C=C(\C)[C@@H](O)[C@@H](OC)C(=O)[C@H](C)C[C@H](C)/C=C/C=C/C=C/1C [everolimus]
patients with reduced seizure frequency ([1]; highest dose): 40%
patients who saw no improvements [1]: 60%
side-effects [1]: had side-effects

Flna shRNA: short hairpin RNA against Flna, expressed from plasmid; sequence 5′ CCTATGAAGCTGGAACCTATA 3′ (expressed from plasmid pCGLH)
total dendritic length ([2]; Rheb^CA neurons co-expressing shRNA by E15 IUE, P28, 194% with control shRNA): 130 % of control
soma size ([2]; Rheb^CA neurons co-expressing shRNA by E15 IUE, P28, 372% with control shRNA): 250 % of control
misplaced cells (neuronal misplacement) ([2]; Rheb^CA neurons co-expressing shRNA by E15 IUE, analysed at P28, 50% with control shRNA, 2% in control): 23%
death of mice (Rheb^CA-expressing mice; out of 10 mice, 4 out of 16 died in the control group): no mice died
lowering of seizure frequency compared to luciferase shRNA (Rheb^CA-expressing mice; video-EEG for 5 days starting at P61): 83%
mean seizure frequency (Rheb^CA-expressing mice; video-EEG for 5 days starting at P61, 12.6 with luciferase shRNA): 2.2 seizures/day
Rheb^CA-induced increased S6 phosphorylation (Neuro2a cells): did not reduce
increased phospho-S6 intensity in vivo (phospho-S6; GFP+ Rheb^CA-expressing neurons in EEG-recorded mice): did not prevent

CN1CCC2(CC1)NCC(=O)N2Cc1ccccc1 [PTI-125]
dendritic dysmorphogenesis [2, 5]: partially rescued
neuronal soma size [2, 5]: partially rescued
dendritic dysmorphogenesis [2, 6]: partially rescued
neuronal soma size [2, 6]: partially rescued
dendritic dysmorphogenesis [2, 7]: partially, but significantly, rescued
increased soma size [2, 7]: partially, but significantly, rescued
cell misplacement (neuronal placement) ([2]; treatment starting at P8, 12 mg/kg, brain sections from recorded mice): not affected; also recorded: did not rescue
seizure frequency (Rheb^CA-expressing mice; 12 mg/kg i.p. twice daily P8-P65, recorded P61 to P66, vehicle 5.1): 1.4 seizures/day
Number of mice without/with seizures per condition (Rheb^CA-expressing mice; FIG. 6A, all treatments combined, vehicle 3/29): 11/32
overall reduction in seizure frequency compared to vehicle-treated littermates (Rheb^CA-expressing mice; all PTI-125 treatments combined (n=32 vs n=27)): 66%
seizure-free mice (Rheb^CA-expressing mice; all PTI-125 treatments combined, vehicle 11%): 35%
lowering of seizure frequency compared to vehicle-treated mice (Rheb^CA-expressing mice; treatment P29 to P54, recorded P50-P54): 69% and 67%
seizure frequency (Rheb^CA-expressing mice; treatment P29 to P54, recorded P50-P54, vehicle 2.7): 0.84 seizures/day
reduction of seizure frequency (Rheb^CA-expressing mice; treatment prior to seizure onset, 12 mg/kg P8-P65, vs vehicle): 73%
reduction in seizure frequency prior to vs after treatment in the same mice (Rheb^CA-expressing mice; young adult mice (P61-P106), 33-day treatment): 60%
change of seizure frequency over time (Rheb^CA-expressing mice; young adult mice switched from vehicle to PTI-125 after 12 days of recordings, 20-day treatment): did not have the increase in seizure frequency observed in the vehicle group
mean seizure frequency (Rheb^CA-expressing mice; young adult mice, after 33-day treatment, 3.9 prior to treatment): 1.6 seizures/day
affinity for native FLNA (native FLNA): picomolar
phospho-S6 expression in the cortex (phospho-S6; nonelectroporated mice, 12 mg/kg): not affected
phospho-S6 intensity in brain sections (phospho-S6; recorded Rheb^CA mice, 12 mg/kg P8-P65): not affected
body weight [3]: did not affect
affinity for aberrant FLNA in Alzheimer's disease [4]: femtomolar
